Results on 59 compounds are retold here after patent US20080090805A1, “CB-1 MODULATING COMPOUNDS AND THEIR USE” (ACADIA PHARMACEUTICALS INC., priority 2005, published 2008).

In this assay the target is native CB1 receptors (Rattus norvegicus, UniProt P20272). Put plainly: CB1 receptor rat binding assay ([3H]SR141716A, rat brain membranes). To be noted: rat brain membranes, [3H]SR141716A; for Ki: read-out: Binding rat pKi (converted).

The structures appear in SMILES notation.

native CB1 receptors, sequence (P20272 whole entry): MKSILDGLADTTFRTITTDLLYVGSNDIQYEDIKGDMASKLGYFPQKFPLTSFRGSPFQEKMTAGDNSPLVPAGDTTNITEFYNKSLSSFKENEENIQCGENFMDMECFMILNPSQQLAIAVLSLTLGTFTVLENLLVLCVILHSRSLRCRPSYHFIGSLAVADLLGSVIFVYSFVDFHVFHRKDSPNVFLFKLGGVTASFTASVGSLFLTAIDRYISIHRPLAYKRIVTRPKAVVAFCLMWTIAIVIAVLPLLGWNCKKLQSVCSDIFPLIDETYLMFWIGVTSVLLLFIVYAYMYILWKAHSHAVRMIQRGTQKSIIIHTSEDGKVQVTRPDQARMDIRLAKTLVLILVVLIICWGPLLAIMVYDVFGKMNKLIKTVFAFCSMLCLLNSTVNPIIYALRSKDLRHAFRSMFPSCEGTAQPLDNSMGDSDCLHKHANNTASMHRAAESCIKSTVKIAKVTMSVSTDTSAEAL

Regarding `O=C(NCc1ccco1)c1ccc2c(c1)N=C(c1ccc(Cl)cc1)c1ccccc1S2` [drawing 1369], the “Binding rat Inh %” value is reported as 93% and the Ki is 5.01 nM.

Regarding `O=C(NCCCC(F)(F)F)c1ccc2c(c1)N=C(c1cccc(F)c1)c1ccccc1S2` [drawing 1248], the “Binding rat Inh %” value came out at 83% and the Ki is 1 nM.

On to `CC(C)CCNC(=O)c1ccc2c(c1)N=C(c1ccc(F)cc1)c1ccccc1S2` [drawing 1330], for which the “Binding rat Inh %” value worked out at 91% and the Ki is 3.98 nM.

Take `CCOCCNC(=O)c1ccc2c(c1)N=C(c1ccc(F)cc1)c1ccccc1S2` [drawing 1446]: the “Binding rat Inh %” value turned out to be 63% and the Ki is 50.1 nM.

Consider `CC(CNC(=O)c1ccc2c(c1)N=C(C1CCCCC1)c1ccccc1S2)c1ccccc1` (centres unmarked) [drawing 1329], for which the Ki was 3.16 nM.

As to `Cc1ccsc1C1=Nc2cc(C(=O)NCCCC(F)(F)F)ccc2Sc2ccccc21` [drawing 1225], the “Binding rat Inh %” value was 109% and the Ki was 0.631 nM.

For the compound `O=C(Cc1ccccc1)NNC(=O)c1ccc2c(c1)N=C(c1ccc(Cl)cc1)c1ccccc1S2` [drawing 1451], the “Binding rat Inh %” value is 72% and the Ki was 50.1 nM.

For the compound `O=C(NN1CCCCC1)c1ccc2c(c1)N=C(c1ccc(Cl)c(F)c1)c1ccccc1S2` [drawing 1394], the “Binding rat Inh %” value is recorded as 87% and the Ki was 5.01 nM.

On to `O=C(NC1CCCC1)c1ccc2c(c1)N=C(c1ccc(Cl)s1)c1ccccc1S2` [drawing 1542], for which the “Binding rat Inh %” value is given as 91% and the Ki was 12.6 nM.

Turning to `O=C(NCc1cccs1)c1ccc2c(c1)N=C(c1ccc(Cl)cc1)c1ccccc1S2` [drawing 1279], the “Binding rat Inh %” value stood at 94% and the Ki is 2 nM.

Take `C[C@@H]1CCC[C@H](C)N1NC(=O)c1ccc2c(c1)N=C(c1cccc(F)c1)c1ccccc1S2` [drawing 1261]: the “Binding rat Inh %” value is listed as 91% and the Ki was 20 nM.

Take `CC(C)CCNC(=O)c1ccc2c(c1)N=C(c1ccccn1)c1ccccc1S2` [drawing 1349]: the “Binding rat Inh %” value stood at 86% and the Ki is 31.6 nM.

Consider `CCCC1=Nc2cc(C(=O)NC(C)C34C[C@H]5C[C@@H](C3)C[C@@H](C4)C5)ccc2Sc2ccccc21` (some centres unmarked), for which the Ki is 25.1 nM.

With `O=C(NCc1ccco1)c1ccc2c(c1)N=C(c1ccc(Cl)s1)c1ccccc1S2` [drawing 1383], the “Binding rat Inh %” value is on record as 112% and the Ki was 5.01 nM.

For the compound `O=C(NCc1cccc(Cl)c1)c1ccc2c(c1)N=C(c1ccc(F)cc1)c1ccccc1S2(=O)=O` [drawing 1408], the Ki is 6.31 nM.

In the case of `O=C(NCCc1ccccc1)c1ccc2c(c1)N=C(c1ccc(F)cc1)c1ccccc1S2` [drawing 1335], the Ki is 3.98 nM.

Consider `CCCCNC(=O)c1cnc2c(n1)N=C(c1ccccc1)c1ccccc1S2` [drawing 1534], for which the “Binding rat Inh %” value was found to be 88% and the Ki is 12.6 nM.

`CC(CNC(=O)c1ccc2c(c1)N=C(N1CCCCC1)c1cc(F)ccc1S2)c1ccccc1` (centres unmarked) [drawing 1513]: the Ki was 79.4 nM.

On to `O=C(NC1CCCC1)c1ccc2c(c1)N=C(c1ccc(F)cc1)c1ccccc1S2` [drawing 1268], for which the “Binding rat Inh %” value was determined as 84% and the Ki is 20 nM.

With `CCOC(=O)N1CCC(NC(=O)c2ccc3c(c2)N=C(C2CCCCC2)c2ccccc2S3)CC1` [drawing 1517], the Ki was 10 nM.

With `CCCCNC(=O)c1ccc2c(c1)N=C(c1ccc(Cl)c(Cl)c1)c1ccccc1S2` [drawing 1311], the “Binding rat Inh %” value is 94% and the Ki was 3.16 nM.

Regarding `O=C(NC1CCCCC1)c1ccc2c(c1)N=C(c1ccc(Cl)cc1)c1ccccc1S2` [drawing 1518], the “Binding rat Inh %” value is given as 96% and the Ki was 10 nM.

In the case of `O=C(NCc1cccc(Cl)c1)c1ccc2c(c1)N=C(c1ccc(F)cc1)c1ccccc1[S+]2[O-]` (centres unmarked) [drawing 1390], the Ki is 31.6 nM.

As to `CCCCNC(=O)c1ccc2c(c1)N=C(c1ccc(Cl)cc1)c1sccc1S2` [drawing 1247], the “Binding rat Inh %” value amounted to 97% and the Ki is 1 nM.

Take `O=C(NCc1ccccn1)c1ccc2c(c1)N=C(c1cccc(Br)c1)c1ccccc1S2` [drawing 1419]: the “Binding rat Inh %” value was 79% and the Ki is 39.8 nM.

As for `CCCCNC(=O)c1ccc2c(c1)N=C(c1ccc(Cl)cc1)c1ccc(Cl)cc1S2` [drawing 1187], the “Binding rat Inh %” value is reported as 94% and the Ki is 12.6 nM.

In the case of `CC(C)CCNC(=O)c1ccc2c(c1)N=C(c1cccc(F)c1)c1ccccc1S2` [drawing 1240], the “Binding rat Inh %” value stood at 99% and the Ki is 0.794 nM.

For the compound `O=C(NNCc1ccccc1)c1ccc2c(c1)N=C(c1cccc(Br)c1)c1ccccc1S2` [drawing 1505], the “Binding rat Inh %” value is 66% and the Ki is 79.4 nM.

For `O=C(NCCC(F)(F)F)c1ccc2c(c1)N=C(c1cccc(Cl)c1)c1ccccc1S2` [drawing 1250], the “Binding rat Inh %” value is listed as 88% and the Ki is 1 nM.

Consider `O=C(NCc1cccc(Cl)c1)c1ccc2c(c1)N=C(c1ccccc1)c1ccccc1S2` [drawing 1449], for which the Ki was 7.94 nM.

For the compound `O=C(NN1CCCCC1)c1ccc2c(c1)N=C(c1cccc(Cl)c1)c1ccccc1S2` [drawing 1380], the “Binding rat Inh %” value is 79% and the Ki is 31.6 nM.

For the compound `CCCCNC(=O)c1ccc2c(c1)N=C(c1ccc(Cl)cn1)c1ccc(F)cc1S2` [drawing 1317], the “Binding rat Inh %” value is listed as 86% and the Ki was 25.1 nM.

Regarding `CCCC1=Nc2cc(C(=O)NCCc3ccc(Cl)cc3)ccc2Sc2ccccc21` [drawing 1285], the Ki was 20 nM.

For the compound `Cc1ccsc1C1=Nc2cc(C(=O)NN3CCCCC3)ccc2Sc2ccccc21` [drawing 1182], the “Binding rat Inh %” value is recorded as 59% and the Ki was 12.6 nM.

As for `CCOC(=O)c1ccc(C2=Nc3cc(C(=O)NCc4ccccn4)ccc3Sc3ccccc32)cc1` [drawing 1476], the “Binding rat Inh %” value is −43% and the Ki is 63.1 nM.

Turning to `O=C(NN1CCCCC1)c1ccc2c(c1)N=C(c1ccccc1)c1ccccc1S2` [drawing 1462], the Ki was 50.1 nM.

For the compound `COc1ccc(C2=Nc3cc(C(=O)NC4CCCCC4)ccc3Sc3ccccc32)cc1` [drawing 1282], the “Binding rat Inh %” value was 91% and the Ki was 2 nM.

In the case of `CC(CNC(=O)c1ccc2c(c1)N=C(c1ccc(F)cc1)c1ccccc1S2)c1ccccc1` (centres unmarked) [drawing 1362], the Ki is 3.98 nM.

As for `O=C(NCc1ccc(F)cc1)c1ccc2c(c1)N=C(C1CCCCC1)c1ccccc1S2` [drawing 1336], the Ki is 3.98 nM.

Regarding `Cc1ccc(CNC(=O)c2ccc3c(c2)N=C(c2ccc(Cl)cc2)c2ccccc2S3)o1` [drawing 1416], the “Binding rat Inh %” value was 88% and the Ki was 6.31 nM.

With `O=C(NC1CCC(F)(F)CC1)c1ccc2c(c1)N=C(c1cccc(F)c1)c1ccccc1S2` [drawing 1249], the “Binding rat Inh %” value stood at 112% and the Ki is 1 nM.

Turning to `CCOC(=O)c1ccc(C2=Nc3cc(C(=O)NCc4cccnc4)ccc3Sc3ccccc32)cc1` [drawing 1350], the “Binding rat Inh %” value is 90% and the Ki is 31.6 nM.

In the case of `CC(C)CNC(=O)c1ccc2c(c1)N=C(c1ccc(F)cc1)c1ccccc1S2` [drawing 1319], the “Binding rat Inh %” value is 87% and the Ki was 3.16 nM.

For `CCN(CCNC(=O)c1ccc2c(c1)N=C(c1cccc(Cl)c1)c1ccccc1S2)c1ccccc1` [drawing 1298], the Ki was 2.51 nM.

Consider `CCCCNC(=O)c1ccc2c(c1)N=C(c1cccc(Cl)c1)c1ccccc1S2` [drawing 1479], for which the Ki was 7.94 nM.

On to `CCCCNC(=O)c1ccc2c(c1)N=C(c1ccc(Cl)c(F)c1)c1ccccc1S2` [drawing 1274], for which the “Binding rat Inh %” value is given as 96% and the Ki is 2 nM.

Take `O=C(NC1CCC(F)(F)CC1)c1ccc2c(c1)N=C(c1ccc(Cl)cc1)c1ccccc1S2`: the “Binding rat Inh %” value was found to be 90% and the Ki is 2.51 nM.

Consider `CCCC1=Nc2cc(C(=O)NC3CCCC(C)C3C)ccc2Sc2ccccc21` (centres unmarked) [drawing 1284], for which the Ki is 20 nM.

In the case of `Cc1ccsc1C1=Nc2cc(C(=O)NCc3ccco3)ccc2Sc2ccccc21` [drawing 1277], the “Binding rat Inh %” value amounted to 85% and the Ki is 20 nM.

As for `CC(C)CNC(=O)c1ccc2c(c1)N=C(c1ccc(Cl)cn1)c1ccc(F)cc1S2` [drawing 1229], the “Binding rat Inh %” value is on record as 87% and the Ki was 15.8 nM.

For `O=C(NN1CCCCCC1)c1ccc2c(c1)N=C(c1ccc(Cl)cc1)c1ccccc1S2` [drawing 1463], the “Binding rat Inh %” value came out at 82% and the Ki was 7.94 nM.

On to `Cc1csc(CNC(=O)c2ccc3c(c2)N=C(c2ccc(F)cc2)c2ccccc2S3)c1` [drawing 1430], for which the “Binding rat Inh %” value was found to be 81% and the Ki is 50.1 nM.

As for `C[C@@H]1CCC[C@H](C)N1NC(=O)c1ccc2c(c1)N=C(c1ccc(Cl)cc1F)c1ccccc1S2` [drawing 1474], the “Binding rat Inh %” value was determined as 71% and the Ki is 7.94 nM.

`COCCNC(=O)c1ccc2c(c1)N=C(c1cccc(F)c1)c1ccccc1S2` [drawing 1468]: the “Binding rat Inh %” value is on record as 86% and the Ki was 50.1 nM.

On to `O=C(NCc1ccccc1)c1ccc2c(c1)N=C(C1CCCCC1)c1ccccc1S2` [drawing 1343], for which the Ki was 3.98 nM.

Regarding `O=C(NCCc1ccncc1)c1ccc2c(c1)N=C(c1ccc(Cl)s1)c1ccccc1S2` [drawing 1540], the “Binding rat Inh %” value is reported as 109% and the Ki is 12.6 nM.

As to `COc1ccc(C2=Nc3cc(C(=O)NC(C)C)ccc3Sc3ccccc32)cc1` [drawing 1550], the “Binding rat Inh %” value is on record as 79% and the Ki is 100 nM.

In the case of `COCCNC(=O)c1ccc2c(c1)N=C(c1ccc(Br)cc1)c1ccccc1S2` [drawing 1358], the “Binding rat Inh %” value stood at 89% and the Ki was 31.6 nM.

Turning to `O=C(NCCc1ccccc1)c1ccc2c(c1)N=C(c1ccccc1F)c1ccccc1S2` [drawing 1444], the Ki is 50.1 nM.
